{"source": "paper PMC11477209", "about": "“Toxicological Evaluation of Kaempferol and Linearolactone as Treatments for Amoebic Liver Abscess Development in Mesocricetus auratus” (International Journal of Molecular Sciences, 2024)", "key": {"[1]": {"assay": "Paraclinical analysis (serum biochemistry, hematic biometry) in ALA hamsters", "format": "in vivo, Mesocricetus auratus", "parameters": "BUN: unit not given here", "method": "Serum was obtained by centrifugation at 3500 rpm and frozen at −70 °C until analysis. Hematic biometry was performed in a hematology autoanalyzer system (BC-2300, Mindray; Shenzhen, China), and biochemical parameters were made on an automatic medical system (Prestige 24i, Tokyo Boeki; Kanagawa, Japan)."}, "[2]": {"test_system": "CHO-K1 cells", "assay": "MTT cytotoxicity assay", "format": "cell-based, Chinese hamster", "conditions": "24 h, MTT"}, "[3]": {"conditions": "blood, ALA hamsters, i.p. 4 days"}, "[4]": {"conditions": "serum, ALA hamsters, i.p. 4 days"}}}
{"smiles": "C[C@]12C[C@H](c3ccoc3)OC(=O)[C@H]1CCC13COC(=O)C1=CC=C[C@H]32", "note": "(stereo partly drawn) [LL, (4S,7R,9R,10S)-7-(furan-3-yl)-9-methyl-6,16-dioxatetracyclo[8.7.0.01,14.04,9]heptadeca-11,13-diene-5,15-dione]", "values": [{"measurement": "AL/GGT ratio", "setting": "[1]; ALA prognosis ratio", "result": "0.23 ± 0.038"}, {"measurement": "Erythrocytes", "setting": "[1]; [3]", "result": "6.7 ± 0.4 x10 6/mm3"}, {"measurement": "Hematocrit", "setting": "[1]; [3]", "result": "45.4 ± 2.9", "unit": "%"}, {"measurement": "Hemoglobin", "setting": "[1]; [3]", "result": "16 ± 0.8", "unit": "g/dL"}, {"measurement": "Leukocytes", "setting": "[1]; [3]", "result": "7.1 ± 1.8 x100/mm3"}, {"measurement": "MCH", "setting": "[1]; [3]", "result": "24 ± 0.3", "unit": "pg"}, {"measurement": "MCHC", "setting": "[1]; [3]", "result": "35 ± 0.9", "unit": "g/dL"}, {"measurement": "MCV", "setting": "[1]; [3]", "result": "68 ± 2.2", "unit": "fL"}, {"measurement": "MPV", "setting": "[1]; [3]", "result": "7.7 ± 0.5", "unit": "fL"}, {"measurement": "PCT", "setting": "[1]; [3]", "result": "0.2 ± 0.0", "unit": "%"}, {"measurement": "PDW", "setting": "[1]; [3]", "result": "9.4 ± 0.3", "unit": "fL"}, {"measurement": "Platelets", "setting": "[1]; [3]", "result": "303 ± 31 x106/μL"}, {"measurement": "RDW-CV", "setting": "[1]; [3]", "result": "14.7 ± 0.6", "unit": "fL"}, {"measurement": "RDW-SD", "setting": "[1]; [3]", "result": "40 ± 2.3", "unit": "fL"}, {"measurement": "TB/AL ratio", "setting": "[1]; drug toxicity ratio", "result": "0.22 ± 0.005"}, {"measurement": "neutrophil/lymphocyte ratio", "setting": "[1]; hematic ratio", "result": "1.66 ± 1.26"}, {"measurement": "BUN/CR ratio", "setting": "[1]; kidney damage ratio", "result": "31.6 ± 9.8"}, {"measurement": "urea/CR ratio", "setting": "[1]; kidney damage ratio", "result": "73.1 ± 26"}, {"measurement": "ALP/TB ratio", "setting": "[1]; liver injury ratio", "result": "10.85 ± 1.28"}, {"measurement": "ALT/ALP ratio", "setting": "[1]; liver injury ratio", "result": "0.25 ± 0.05"}, {"measurement": "AST/ALT ratio (De Ritis ratio)", "setting": "[1]; liver injury ratio", "result": "> 1"}, {"measurement": "Band neutrophils", "setting": "[1]; manual differential analysis", "result": 0, "unit": "%"}, {"measurement": "Basophils", "setting": "[1]; manual differential analysis", "result": 0, "unit": "%"}, {"measurement": "Eosinophils", "setting": "[1]; manual differential analysis", "result": 0, "unit": "%"}, {"measurement": "Immature forms", "setting": "[1]; manual differential analysis", "result": 0, "unit": "%"}, {"measurement": "Lymphocytes", "setting": "[1]; manual differential analysis", "result": "44 ± 21", "unit": "%"}, {"measurement": "Monocytes", "setting": "[1]; manual differential analysis", "result": 0, "unit": "%"}, {"measurement": "Segmented neutrophils", "setting": "[1]; manual differential analysis", "result": "56 ± 21", "unit": "%"}, {"measurement": "ALT (GPT)", "setting": "[1]; [4]", "result": "89 ± 16", "unit": "U/L"}, {"measurement": "AST (GOT)", "setting": "[1]; [4]", "result": "163 ± 22", "unit": "U/L"}, {"measurement": "Albumin", "setting": "[1]; [4]", "result": "1.7 ± 0.1", "unit": "g/dL"}, {"measurement": "Alkaline phosphatase", "setting": "[1]; [4]", "result": "355 ± 9.5", "unit": "U/L"}, {"measurement": "BUN", "setting": "[1]; [4]", "result": "16.1 ± 1.5"}, {"measurement": "Cholesterol", "setting": "[1]; [4]", "result": "105 ± 24", "unit": "mg/dL"}, {"measurement": "Creatinine", "setting": "[1]; [4]", "result": "0.54 ± 0.2", "unit": "mg/dL"}, {"measurement": "Direct bilirubin", "setting": "[1]; [4]", "result": "0.26 ± 0.04", "unit": "mg/dL"}, {"measurement": "GGT", "setting": "[1]; [4]", "result": "7.5 ± 2.1", "unit": "U/L"}, {"measurement": "Glucose", "setting": "[1]; [4]", "result": "123 ± 20", "unit": "mg/dL"}, {"measurement": "Indirect bilirubin", "setting": "[1]; [4]", "result": "0.12 ± 0.0", "unit": "mg/dL"}, {"measurement": "Total bilirubin", "setting": "[1]; [4]", "result": "0.37 ± 0.04", "unit": "mg/dL"}, {"measurement": "Total protein", "setting": "[1]; [4]", "result": "5.3 ± 0.3", "unit": "g/dL"}, {"measurement": "Triglycerides", "setting": "[1]; [4]", "result": "132 ± 8.7", "unit": "mg/dL"}, {"measurement": "Urea", "setting": "[1]; [4]", "result": "37 ± 6.01", "unit": "mg/dL"}, {"measurement": "biological activity symbol on IC50 CHO-K1", "setting": "[2]", "result": "-"}, {"measurement": "IC50", "setting": "[2]; Cricetulus griseus, CHO-K1, read-out: IC50 CHO-K1", "result": 300, "unit": "µg/mL"}]}
